Test results reported in patent US9155722B2, “Reconstitutable reverse thermal gelling polymers” (PROTHERICS SALT LAKE CITY, INC., priority 2009, dated 2015).

Legend:
[1] = physchem
Procedure: For solubilization studies, the calculated amount of Paclitaxel was add to the block polymers aqueous solution (prepared according to Example 5) and stirred for 10-20 minute at room temperature or 4° C.

[2] = Stability of paclitaxel in copolymer solution or gel; assay type: physicochemical
[3] = cited from earlier work

Q: What does the source list for `CC(=O)O[C@H]1C(=O)[C@@]2(C)[C@H]([C@H](OC(=O)c3ccccc3)[C@]3(O)C[C@H](OC(=O)[C@H](O)[C@@H](NC(=O)c4ccccc4)c4ccccc4)C(C)=C1C3(C)C)[C@]1(OC(C)=O)CO[C@@H]1C[C@@H]2O` [paclitaxel]?
A: increase in solubility of paclitaxel [1]: ~3000 fold; solubility ([1]; aqueous with cosolvent or surfactant or cyclodextrin, thermodynamic from solid): ≤ 12 mg/mL; paclitaxel intact ([2]; 23% by weight aqueous triblock copolymer solutions or gels, after 30 days in storage (2 to 8° C. and 37° C.)): > 90%; paclitaxel degraded ([2]; aqueous cosolvent solution, in less than one week at 37° C.): > 50%; solubility in water [3]: approximately 4 μg/ml
